Values joined by “and” are separate entries in the source; they are usually repeats but may differ in a detail not shown here. Identical values can stand only once.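 Assay format: 96-well plates, 48-hour exposure. GI50 is the concentration that inhibits growth by half. TGI marks complete inhibition of growth.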

The assay has as its system MDA-MB-468 breast. The assay can be described thus: NCI-60 cell line screen, 48 h.
For `COc1ccccc1CNCCCN1C(=O)c2ccc3c4c(ccc(c24)C1=O)C(=O)N(CCCN)C3=O`, the GI50 is 333 nM and the TGI was 1.36 µM.

On to `Cn1cc(-c2csc(-c3cn(CCCN4CCCCC4)c4ccccc34)n2)c2cccnc21`, for which the GI50 is 1870 nM and the TGI was 3.74 µM.

Turning to `COC(=O)c1cc2ccccc2c2c3c(ccc12)OCO3`, the GI50 was 48800 nM and the TGI was > 1000 µM.

Consider `Nc1c(C(=O)c2cccc(C#CCO)c2)cnn1-c1ccc(F)cc1`, for which the GI50 is > 25000 nM and the TGI is > 25 µM.

For the compound `Oc1cccc2ccc(-c3nnc(SCc4ccc(O)c5ncccc45)o3)nc12`, the GI50 is 986 nM and the TGI was 8.49 µM.

For the compound `CCC[CH2][Sn]1([CH2]CCC)[O]C2C(CO)OC(n3ccc(N)nc3=O)C2[O]1` (stereo unspecified), the GI50 was 471 nM and the TGI was 2 µM.

Take `c1ccc2[nH]c(-c3cc(-c4ccc5c(c4)OCO5)n[nH]3)nc2c1`: the GI50 was 3570 nM and the TGI worked out at 17.2 µM.

For `CC(C)(C)c1[nH]nc2c1C(c1cc3ccccc3[nH]c1=O)Nc1cc(C(=O)OCc3ccccc3)ccc1N2` (stereo unspecified), the GI50 is 2460 nM and the TGI amounted to 6.74 µM.

For `NC(=O)Nc1cc(-c2cccc(F)c2)sc1C(=O)N[C@H]1CCCNC1`, the GI50 was 591 nM and 398 nM; the TGI is 2.35 µM and 1.64 µM.

As for `N#CSCc1ccc(Cl)c(CSC#N)c1`, the GI50 was 129 nM and the TGI came to 32.6 µM.

As for `Cc1nn(-c2ccc(Cl)cc2)c2nc3c(nc12)C(=O)C(=O)c1ccccc1-3`, the GI50 was 13900 nM and the TGI is > 100 µM.

Turning to `COc1ccc(C2=CC(c3ccc(OC)cc3Br)N3C=CSC3=N2)cc1` (stereo unspecified), the GI50 was 2650 nM and the TGI turned out to be 10 µM.

As for `COc1ccc(/C=C(\C(=O)NCc2cccnc2)S(=O)(=O)c2ccccc2)cc1OC`, the GI50 was 1570 nM and the TGI amounted to 5.27 µM.

As to `COc1ccc(CC(=O)c2ccc(O)cc2O)cc1`, the GI50 was 56700 nM and the TGI was > 100 µM.

As to `C#CCNCCN1C(=O)c2ccc3c4c(ccc(c24)C1=O)C(=O)N(CCNCC#C)C3=O`, the GI50 was 2250 nM and the TGI came out at 10.4 µM.

Consider `Cc1[nH]c2ccc(F)cc2c1-c1nc2c3cccnc3c3ncccc3c2[nH]1`, for which the GI50 is 201 nM and the TGI came out at 0.787 µM.

Regarding `CC(C)=CCc1c2c(c(O)c3c1O[C@]14C(=C[C@@H]5C[C@H]1C(C)(C)O[C@@]4(C/C=C(/C)C(=O)O)C5=O)C3=O)CC(O)C(C)(C)O2` (stereo partly specified), the GI50 is 12100 nM and the TGI stood at 27.6 µM.

On to `Cc1nn(C)c(COc2ccc(N3CCN(S(=O)(=O)N(C)C)CC3)cc2)c1-c1cccc2c(CCCOc3cccc4ccccc34)c(C(=O)O)n(CCN3CCOCC3)c12`, for which the GI50 is 1910 nM and the TGI came to 5.36 µM.

On to `Cc1ccc(-c2nc3nc(-c4ccccc4)nc(N4CCNCC4)c3o2)cc1`, for which the GI50 was 310 nM and the TGI came out at 1.23 µM.

As to `CCN(CC)c1ccc(/C=N/NC(=O)c2ccc(NS(C)(=O)=O)cc2)cc1`, the GI50 is 358 nM and the TGI amounted to 3.81 µM.

For the compound `N#Cc1c(NC(=O)c2ccc(F)c(Cl)c2)sc2c1CCC(=O)C2`, the GI50 was 387 nM and the TGI was 1.95 µM.

For `O=C1c2ccc3c4c(ccc(c24)C(=O)N1CCCNCc1ccccc1Cl)C(=O)N(CCCNCc1ccccc1Cl)C3=O`, the GI50 is 124 nM and the TGI is 0.352 µM.

Take `COc1ccc(C(=O)/C=C/c2cccc(Nc3ccnc4cc(Cl)ccc34)c2)cc1`: the GI50 is 576 nM and the TGI was 3.38 µM.

Regarding `O=C1NOC(c2ccc(O)cc2)(c2ccc(O)cc2)c2ccccc21`, the GI50 is > 100000 nM and the TGI was > 100 µM.

For `C=C1CC[C@@H]2[C@](C)(COC(C)=O)[C@H](OC(C)=O)CC[C@@]2(C)[C@@H]1CC(Nc1ccc(S(=O)(=O)Nc2ccc(Cl)nn2)cc1)C1=CCOC1=O` (stereo partly specified), the GI50 is 1320 nM and the TGI is 3.37 µM.

Regarding `CCN1C(=O)N(CC)C2C1NN=c1s/c(=C\c3ccccn3)c(=O)n12` (stereo unspecified), the GI50 was 523 nM and the TGI stood at 5.67 µM.

As to `O=[N+]([O-])c1ccc(N=Nc2ccc(O)c3ccccc23)cc1`, the GI50 was 3260 nM and the TGI is 30.6 µM.

As to `COc1ccc(C2C(C#N)=C(N)Oc3c2sc2ccc(C)cc32)cc1` (stereo unspecified), the GI50 was 2420 nM and the TGI amounted to 9.74 µM.

Take `[Cl][Ru].c1ccc(-c2cccc(-c3ccccn3)n2)nc1.c1ccc(-c2ccnc3c2ccc2c(-c4ccccc4)ccnc23)cc1`: the GI50 was 1310 nM and the TGI is 3.68 µM.

In the case of `CN(C)c1ccc(C(=NO)c2ccc(N(C)C)cc2)cc1`, the GI50 was 716 nM and the TGI stood at 4.43 µM.

As for `Nc1ccccc1C#C/C=C\C#Cc1cccc(O)c1`, the GI50 is 1380 nM and the TGI came to 20.4 µM.

For `CCOC(=O)c1cc2c(n1Cc1cc(OC)c(OC)c(OC)c1)-c1oncc1CCC2`, the GI50 is 666 nM and the TGI is > 83.6 µM.

As for `Cc1[nH]c(=O)nc(Nc2ccc(Cl)cc2)c1C(=O)N1CCN(CCO)CC1`, the GI50 was 34800 nM and the TGI is > 100 µM.

Regarding `O=c1c(O)c(-c2ccc(O)c(O)c2)oc2cc(O)cc(O)c12`, the GI50 is 6670 nM and the TGI was found to be 47.2 µM.

`Nc1ncnc2c1c(-c1ccc(Oc3ccccc3)cc1)nn2C[C@@H]1SSC[C@H]1O`: the GI50 was 349 nM and the TGI was determined as 2.61 µM.

Take `COc1cc(OC)c(C(=O)/C=C/c2cccc(C#N)c2)c(OC)c1`: the GI50 was 792 nM and the TGI is 2.46 µM.

On to `COc1cnc2c(c1)C(=O)c1c-2n(CCCNC2=NCCS2)c(=O)c2cc(Cl)ccc12`, for which the GI50 is 86 nM and the TGI is 2.18 µM.

In the case of `CC[C@H](CO)Nc1nc(NCc2ccccc2)c2ncn(C(C)C)c2n1`, the GI50 is 15800 nM and the TGI came to 33.9 µM.

On to `COc1ccc(Cl)c(Nc2nc3ccccc3nc2NS(=O)(=O)c2cccc(NC(=O)C(C)(C)N)c2)c1`, for which the GI50 was 2630 nM and 1620 nM; the TGI was 14.8 µM and > 10 µM.

With `Cc1ccc(C(=O)NC2CCC2)cc1-c1ccc(C(=O)NCC2CC2)cc1`, the GI50 is > 17200 nM and the TGI was > 25 µM.

For `O1[As]2O[As]3O[As]1O[As](O2)O3`, the GI50 is 216 nM and the TGI turned out to be 1.26 µM.

As to `Nc1c(C(=O)c2cccc(-c3cccnc3)c2)cnn1-c1ccc(F)cc1F`, the GI50 is 2970 nM and the TGI is > 25 µM.

Consider `O=C(Nc1ccc(Oc2cccc(F)c2)c(Cl)c1)c1cnccn1`, for which the GI50 was 834 nM and the TGI came to 4.99 µM.

With `CC(C)CCNCC(O)Cn1c2ccccc2c2ccccc21` (stereo unspecified), the GI50 is 1950 nM and the TGI worked out at 4.35 µM.

As for `Cc1ccc(-c2csc(NC(=O)N3CCN(c4cc5c(cc4F)c(=O)c(C(=O)O)cn5C4CC4)CC3)n2)cc1`, the GI50 is 1290 nM and the TGI came out at 8.17 µM.

On to `O=C1C(SCCO)=C(SCCO)C(=O)N1c1ccc(-c2ccccc2)cc1`, for which the GI50 was 534 nM and the TGI was determined as 1.5 µM.

`NC(=O)c1ccc(-c2nc(-c3ccc4c(c3)OCO4)c(-c3ccccn3)[nH]2)cc1`: the GI50 is > 25000 nM and 21600 nM; the TGI was > 25 µM and 57 µM.

In the case of `Cc1nn(-c2ccc([N+](=O)[O-])cc2)c2ncnc(N/N=C/c3ccccc3O)c12`, the GI50 is 1090 nM and the TGI is 3.88 µM.

For `CC1=C(CCC(C)NCc2ccc(OCCCN3CCCCC3)cc2)C(C)(C)CCC1` (stereo unspecified), the GI50 was 1530 nM and the TGI came out at 3.12 µM.

Consider `COC(=O)Nc1nc2ccc(Oc3cccc(NC(=O)Nc4cc(C(F)(F)F)ccc4F)c3)cc2[nH]1`, for which the GI50 is 7870 nM and the TGI was > 23.1 µM.

For the compound `Cc1ccc2c(n1)C(=O)C(Cl)=C(Nc1cccc(C(F)(F)F)c1)C2=O`, the GI50 is 1770 nM and the TGI worked out at 3.66 µM.

For the compound `Cc1cnc(CNC(=O)c2c(=O)c3ccc(N4CCCN(C)CC4)nc3n3c2sc2ccccc23)cn1`, the GI50 is 15700 nM and the TGI was 34.8 µM.

Regarding `COC(=O)C1=C(C)NC(C)=C(C(=O)OCC(C)C)C1c1ccccc1[N+](=O)[O-]` (stereo unspecified), the GI50 was 2830 nM and the TGI was 9.63 µM.

Source of the values: PubChem BioAssay (NCI).
